According to patent US5432175A, “Pyridine and pyridine N-oxide derivatives of diaryl methyl piperidines or piperazines, and compositions and methods of use thereof” (Schering Corporation, priority 1993, dated 1995):

Assays:
PAF-induced bronchospasm = PAF-induced bronchospasm in guinea pigs (in vivo); design: species or system guinea pig (male Hartley); conditions: Cavia porcellus, read-out: Agonist Bronchospasm (in vivo) PAF % Inhibition; for inhibition in vivo at 3 mg/kg: oral, PAF 0.4 μg/kg i.v.
Description: (§1) B. In Vivo Studies: Agonist-Induced Responses
(§2) Spasmogen-Induced Bronchospasm in Guinea Pigs
(§3) Male Hartley guinea pigs (450-550 g) were obtained from Charles River Breeding Laboratories. The animals were fasted overnight and the following day were anesthetized with 0.9 ml/kg i.p. of dilaurethane (containing 0.1 g/ml diallylbarbituric acid, 0.4 g/ml ethylurea and 0.4 g/ml urethane). The left jugular vein was cannulated for the administration of compounds. The trachea was cannulated and the animals were ventilated by a rodent respirator at 55 strokes/min. with a stroke volume of 4 ml. A side arm to the tracheal cannula was connected to a pressure transducer to obtain a continuous measure of inflation pressure. Bronchoconstriction was measured as the percent increase in inflation pressure that peaked within 5 min. after challenge with spasmogen. […] Each animal was challenged with only a single spasmogen. The effect of a compound on the bronchospasm is expressed as a percent inhibition of the increase in inflation pressure compared to the increase in a control group. […] The first two compounds in TABLE II are known compounds and are included for comparison purposes.

[1] = test system: histamine-induced bronchospasm; test: Histamine-induced bronchospasm in guinea pigs (in vivo); design: species or system guinea pig (male Hartley); conditions: oral, histamine 10 ug/kg i.v.
Description: as §1, §2, §3

[2] = test system: PAF-induced platelet aggregation; test: Platelet Aggregation Assay (in vitro PAF antagonism, human platelet-rich plasma); format: cell-based; conditions: 37° C., PAF 1-5×10^-8 M
Description: Platelet Aggregation Assay
Platelet-activating factor (PAF) causes aggregation of platelets by a receptor-mediated mechanism. Therefore, PAF-induced platelet aggregation provides a simple and convenient assay to screen compounds for PAF antagonism.
Blood was centrifuged at 110×g for 15 min. and the supernatant platelet-rich plasma (PRP) carefully transferred into a polypropylene tube. Platelet-poor-plasma (PPP) was prepared by centrifuging PRP at 12,000×g for 2 min. PRP was used within 3 hr. of drawing the blood.
PAF was dissolved in chloroform:methanol (1:1, v/v) at a concentration of 2 mg/ml and stored at -70° C. An aliquot of this solution was transferred to a polypropylene tube and dried under a flow of nitrogen gas. […] The solution was sonicated for 5 min. This stock solution was further diluted to appropriate concentrations in Hepes-saline-BSA buffer. Collagen and adenosine diphosphate (ADP) were purchased as solutions. Test compounds were initially dissolved in dimethyl sulfoxide (DMSO) at a concentration of 50 mM and then further diluted in Hepes-saline-BSA buffer to achieve appropriate concentrations.
When an aggregating agent such as PAF is added to PRP, platelets aggregate. An aggregometer quantifies this aggregation by measuring and comparing light (infra-red) transmission through PPP and PRP. Aggregation assays were performed using a dual-channel aggregometer. PRP (0.45 ml) in aggregometer cuvettes was continually stirred (37° C.). Solutions (50 μL) of test compounds or vehicle were added to the PRP and, after incubation for 2 min., 10-15 μl aliquots of PAF solution were added to achieve a final concentration of 1-5×10^-8 M. In different experiments the aggregatory response was kept within a set limit by varying the concentration of PAF. Incubations were continued until the increase in light transmission reached a maximum (usually 2 min.). This increase in light transmission reflecting platelet aggregation is transmitted to a computer. The computer calculates the slope of transmission change, thus providing the rate of aggregation. Values for inhibition were calculated by comparing rates of aggregation obtained in the absence and the presence of the compound. For each experiment, a standard PAF antagonist such as 8-chloro-6,11-dihydro-11 -(1-acetyl-4-piperidylidene)-5H-benzo[5,6]cyclohepta[1,2-b]pyridine was used as a positive control. […]

IC50 [2] [nM]	Structure (SMILES)	inhibition in vivo at 3 mg/kg (PAF-induced bronchospasm) [%]	Agonist Bronchospasm (in vivo) Histamine % Inhibition ([1]; dose 3 mg/kg) [%]	other results
1000	O=C(c1cc[n+]([O-])cc1)N1CCN(C(c2ccccc2)c2ccc(Cl)cc2)CC1 (centres unmarked)	99	30	–
35000	[O-][n+]1ccc(CN2CCC(=C(c3ccc(Cl)cc3)c3nccs3)CC2)cc1	–	–	–
12000	[O-][n+]1ccc(CN2CCN(C(c3ccc(Cl)cc3)c3nccs3)CC2)cc1 (centres unmarked)	–	–	–
12000	[O-][n+]1ccc(CN2CCC(=C(c3ccc(Cl)cc3)c3ccccn3)CC2)cc1	18	95	–
1000	O=C(c1cc[n+]([O-])cc1)N1CCC(=C(c2ccc(Cl)cc2)c2nccs2)CC1	–	–	–
1000	O=C(c1cc[n+]([O-])cc1)N1CCN(C(c2ccc(Cl)cc2)c2nccs2)CC1 (centres unmarked)	73	–	Agonist Bronchospasm (in vivo) Histamine % Inhibition ([1]; dose 10 mg/kg): 25%
500	O=C(c1cc[n+]([O-])cc1)N1CCC(=C(c2ccc(Cl)cc2)c2ccccn2)CC1	100	0	–
610	CC(=O)N1CCC(=C2c3ccc(Cl)cc3CCc3cccnc32)CC1 [reference compound]	4	48	–
20000	Cn1ccnc1C(=C1CCN(Cc2cc[n+]([O-])cc2)CC1)c1ccc(Cl)cc1	–	–	–
–	CCOC(=O)N1CCC(=C2c3ccc(Cl)cc3CCc3cccnc32)CC1 [reference compound]	–	–	inhibition in vivo at 10 mg/kg (PAF-induced bronchospasm; po): < 50%; Agonist Bronchospasm (in vivo) Histamine % Inhibition ([1]; dose 1 mg/kg): > 50%
2000	Cn1ccnc1C(=C1CCN(C(=O)c2cc[n+]([O-])cc2)CC1)c1ccc(Cl)cc1	–	–	–
3000	O=C(c1cc[n+]([O-])cc1)N1CCC(=C(c2ccccc2)c2ccccc2)CC1	44	0	–
200	O=C(c1cc[n+]([O-])cc1)N1CCN(C(c2ccc(Cl)cc2)c2cccs2)CC1 (centres unmarked)	22	–	–
15000	[O-][n+]1ccc(CN2CCN(C(c3ccc(Cl)cc3)c3cccs3)CC2)cc1 (centres unmarked)	–	–	–
500	O=C(c1cc[n+]([O-])cc1)N1CCC(=C(c2ccc(Cl)cc2)c2cccs2)CC1	–	–	–
